Source: patent publication US20230338297A1, “Encapsulated Agents that Bind to MCT-1” (THE JOHNS HOPKINS UNIVERSITY, priority 2020, published 2023)

Experiments:
[1] = tested on: DLD-1 parental cells; assay: effect of MCT-1 loss on sensitivity: DLD-1 parental cells; assay type: cell-based, human; conditions: 0-200 uM
Experimental: (§1) The Alt-R CRISPR system (Integrated DNA Technologies, IDT) was used to delete SLC16A1, the gene encoding for the MCT-1 protein, in the DLD-1 and MiaPaCa-2 cell lines. The gRNA sequence was designed using CHOPCHOP v.3 12. Briefly, Alt-R CRISPR Cas9 crRNAs ([…], IDT; SEQ ID NO:1) and Alt-R CRISPR-Cas9 tracrRNA (1072532, IDT) were re-suspended at 100 μM with Nuclease-Free Duplex Buffer (IDT). The crRNAs and tracrRNA were mixed at a 1:1 molar ratio and denatured for 5 min at 95° C., followed by slow cooling to room temperature to duplex prior to mixing with Cas9 Nuclease (1081059, IDT) at a 1.2:1 molar ratio for 15 min. Forty pmoles of the Cas9 ribonucleoprotein (RNP) containing tracrRNA/MCT-1 crRNA duplex were mixed with 2×10^5 DLD-1 cells in 20 μL of OptiMEM (31985088, ThermoFisher Scientific). This mixture was loaded into a 0.1 cm cuvette (1652089, Bio Rad) and electroporated at 120 V for 16 ms using an ECM 2001 (Harvard Apparatus). Cells were immediately transferred to complete growth medium and cultured for one week. Upon reaching confluence, polyclonal pools were plated at a density of 0.5 to 2 cells per well in 96-well plates and cultured for 3 weeks. Single colonies were transferred into 2 replica 96-well plates. […]

[2] = tested on: DLD-1 MCT-1(-) cells; assay: effect of MCT-1 loss on sensitivity: DLD-1 MCT-1(-) knock-out cells; assay type: cell-based, human; conditions: even at 200 uM
Experimental: as §1

[3] = stability of CD-3BP complexes and free 3BP in sera, residual 3BP by cell toxicity assay (HCT-116); assay type: in vitro ADME, human; conditions: incubated with sera at 37° C. for up to 8 hours
Source text: However, how microencapsulation in CD alters the solubility and stability of 3BP and whether chemical modifications of CDs can alter physicochemical characteristics of the drug remains unclear. To address these questions and clarify the biological effect of microencapsulation, an assay was designed to estimate the stability of various CD-3BP complexes when compared to free 3BP in human sera.
Two different types of complexes, the previously used sCD-3BP (Chapiro, J. et al., Clinical cancer research: An official journal of the American Association for Cancer Research 20, 6406-6417, doi:10.1158/1078-0432.ccr-14-1271 (2014)) and newly generated HPCD-3BP were compared side-by-side. […] Aliquots were collected at various time points and assessed for residual 3BP by a cell toxicity assay. […]
Free 3BP, sCD-3BP and HPCD-3BP were incubated at various concentrations (12.5 μM, 25 μM, 50 μM, 100 μM and 200 μM) with 90 μL of mouse sera at 37° C. for up to 8 hours. […] Un-degraded biologically active 3BP at each time was then assessed by a cell toxicity assay. […] Cell death was measured by imaging cells after 72 hours using the IncuCyte® Live Cell-Analysis System (Essen Bioscience) and using the CellTox™ Green Cytotoxicity Assay (Promega), following the manufacturer's recommendation. […]

[4] = tested on: MiaPaCa-2 cells; assay: rapid induction of cell death, timed exposure and washout of MiaPaCa-2 cells; assay type: cell-based, human
Experimental: Representative pancreatic cancer cells MiaPaCa-2 (MCT-1: 163 TPM, Expression Atlas) were plated in a 96 well plate at 12,000 cells/well. These cells were then exposed to a 2-fold dilution series of sCD-3BP and free 3BP for different amounts of time (exposure time: 15 minutes, 30 minutes, 1 hour, 2 hours, 4 hours and 8 hours) and their outcome recorded by Incucyte® Live-Cell Analysis Systems, over 36 hours. After the desired timed exposure, cells were washed with PBS and fresh media was added to ensure no more drug persisted in the respective wells. […] The IC50 of both agents was calculated to be 84-90 uM when cells were exposed to the drug for only 15 minutes. […] While treated cells looked initially healthy following drug washout, cell death became discernable 24 hours post exposure.

[5] = target: T1, MCT-1 (Homo sapiens, UniProt P53985); assay type: cell-based
T1 construct: endogenous in cells
T1 sequence (P53985 1-500): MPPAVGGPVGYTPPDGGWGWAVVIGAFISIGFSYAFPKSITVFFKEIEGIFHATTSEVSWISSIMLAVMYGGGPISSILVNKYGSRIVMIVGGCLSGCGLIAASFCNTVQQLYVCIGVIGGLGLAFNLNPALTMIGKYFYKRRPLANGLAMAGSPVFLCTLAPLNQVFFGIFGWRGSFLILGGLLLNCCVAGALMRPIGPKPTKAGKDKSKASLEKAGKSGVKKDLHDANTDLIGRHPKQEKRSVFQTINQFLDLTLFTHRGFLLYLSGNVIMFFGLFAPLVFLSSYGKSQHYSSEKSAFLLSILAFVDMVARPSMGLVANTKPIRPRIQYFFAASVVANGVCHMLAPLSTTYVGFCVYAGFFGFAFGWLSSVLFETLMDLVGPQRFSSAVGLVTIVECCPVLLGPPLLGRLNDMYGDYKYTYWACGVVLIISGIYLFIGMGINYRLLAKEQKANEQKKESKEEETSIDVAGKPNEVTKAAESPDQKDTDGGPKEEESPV
T1 sequence (P35613 140-385 partner limits assumed): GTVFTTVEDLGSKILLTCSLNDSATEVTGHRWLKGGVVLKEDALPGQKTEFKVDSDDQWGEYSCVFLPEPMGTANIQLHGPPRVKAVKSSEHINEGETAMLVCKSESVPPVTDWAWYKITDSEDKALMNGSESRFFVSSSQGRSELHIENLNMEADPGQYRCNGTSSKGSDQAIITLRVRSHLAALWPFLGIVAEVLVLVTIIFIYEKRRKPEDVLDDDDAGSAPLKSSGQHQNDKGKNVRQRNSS
Source text: To gain insight into this lack of sensitivity, the expression levels of three cell surface channels, GLUT-1 (Yu, M. et al. The prognostic value of GLUT1 in cancers: a systematic review and meta-analysis. Oncotarget 8, 43356-43367, doi:10.18632/oncotarget.17445 (2017)), MCT-1 and MCT-4 (Hong, C. S. et al. MCT1 Modulates Cancer Cell Pyruvate Export and Growth of Tumors that Co-express MCT1 and MCT4. Cell Reports 14, 1590-1601, doi:10.1016/j.celrep.2016.01.057 (2016)) were compared in all 7 pancreatic cancer cell lines using RNA expression atlas (FIG. 4A). While neither GLUT1 (primarily responsible for glucose uptake and therefore, the FDG-PET positive phenotype) nor MCT-4 expression levels of CFPAC-1 were lower than other cell lines in the panel, expression levels of MCT-1 in CFPAC-1 (22 TPM) was nearly three-fold lower than the next lowest expressor (BxPC-3, 64 TPM) in the cell line panel (FIG. 4B). […]

| Compound | cell death [1] | loss of viability [2] | stability / protection against degradation in sera ([3]; listed as Free 3BP) | stability / protection against degradation in sera ([3]; listed as free 3BP) | potency at killing MiaPaCa-2 cells, sCD-3BP compared with 3BP [4] | rescue of cells from CD-3BP mediated cytotoxicity [5] |
| --- | --- | --- | --- | --- | --- | --- |
| O=C(O)C(=O)CBr [3BP, 3-bromopyruvate] | dramatic cell death | no loss of viability | rapidly degraded | rapid degradation | equally potent | – |
| Cc1[nH]nc(C(F)(F)F)c1Cc1sc2c(c1C(=O)N1C[C@](C)(O)CO1)c(=O)n(C)c(=O)n2C(C)C [AZD3965] | – | – | – | – | – | clear dose dependent rescue |
